{"source": "patent US20070172444A1", "about": "“Hair tonics and method of screening the same” (Shiseido Company, Ltd., priority 2000, published 2007)", "key": {"human hair follicles": {"system": "human hair follicles", "assay": "Human hair follicle organ culture (hair extension, retention of hair bulb morphology)", "format": "cell-based", "conditions": "for extension of hair: 7 days", "description": "Three antibiotics of penicillin, streptomycin and fungizone were added to the Williams E medium (Gibco), and the medium to which 10 ng/ml hydrocortisone, 10 μg/ml insulin, 10 ng/ml sodium pentaselenate and 10 μg/ml transferrin were further added was made the insulin-containing medium, and the medium to which they were not added was made the basal medium, and were used in a human hair follicle organ culture.\n(§1) Using a microtome under a stereoscopic microscope, hair follicles in the growth phase were isolated from a human scalp. The isolated hair follicles were washed in the basal medium followed by the measurement of length, and then immersed in the insulin-containing medium (a 24-well microplate was used; 1 ml per well), and was cultured overnight at 37° C. in an atmospheric condition containing 5% CO2. After measuring the length again, hair follicles of which length extension was 0.25 mm or longer and of which morphology in the growth phase was retained were selected, and were divided in groups of 10 to 12 pieces so that the length extension may become equal. For each group, the medium was changed to one containing test substances, and the culturing was continued under the above gas phase condition.\nThe extension of hair follicles was determined over time by inserting a micrometer into the eyepiece of an inverted microscope. Photographs of the whole hair follicles and hair bulbs were taken by a camera connected to the inverted microscope.\nOn the second day of culturing, the medium was changed to one in which TGF-β2 was added to a final concentration of 50 ng/ml, and the culturing was continued for five days while observing the extension of hair follicles and morphological changes. […] Thus, it was estimated that TGF-β2 has an effect of promoting the regression phase.\nThe method was performed in accordance with the human hair follicle organ culture method. On the second day of culturing, the medium was changed to one in which anti-TGF-β antibody (manufactured by Genzyme) having the effect of neutralizing TGF-β or the control mouse IgG were added to a final concentration of 20 μg/ml or 100 μg/ml, and culturing was continued for 4-7 days while observing the extension and morphological changes of hair follicles.\nThe medium was changed to one in which fetuin (final concentration: 1, 10, 50 μM) or the control bovine serum albumin (final concentration: 50 μM) was added to the basal medium, and culturing was continued for a further 7 days while observing the extension and morphological changes of hair follicles.\nas §1, with “that” for “that the”\nThe extension of hair follicles was determined with time by inserting a micrometer into the eyepiece of an inverted microscope. Photographs of the whole hair follicles and hair bulbs were taken by a camera connected to the inverted microscope.\nCarbobenzoxy-valyl-alanyl-β-methyl-aspar-1-yl-fluoromethane (z-VAD-fmk) is known to inhibit almost all caspases. […] The medium was changed to one in which z-VAD-fmk (final concentration: 1, 10, 100 μM) was dissolved in DMSO or the control DMSO was added to the basal medium, and culturing was continued for further 7 days while observing the extension and morphological changes of hair follicles. […]"}, "precursor caspase-3": {"system": "precursor caspase-3", "assay": "Detection of precursor and activated caspase-3 in Pam212 cells cultured with TNF α and CHX", "format": "cell-based, mouse", "conditions": "TNF α and CHX added, incubated six hours, antibody detection", "text": "The precursor caspase-3 was detected in almost all cells, whereas activated caspase-3 was not detected."}, "TGF-β2": {"target": "T1, TGF-β2 (Homo sapiens, UniProt P61812)", "T1 construct": "host or cells: added to the culture medium of human dermal papilla cells", "T1 sequence (P61812 303-414 limits assumed)": "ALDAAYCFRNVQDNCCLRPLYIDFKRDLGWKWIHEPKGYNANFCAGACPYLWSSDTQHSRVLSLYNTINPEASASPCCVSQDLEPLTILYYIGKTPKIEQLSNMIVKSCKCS", "assay": "Determination of PAI-1 in human dermal papilla cells cultured with TGF-β2", "format": "cell-based", "description": "The inhibition of effect of TGF-β2 can be determined as follows. Utilizing the fact that TGF-β2 induces the production of PAI-1, cells (e.g., dermal papilla cells) are cultured in the coexistence of TGF-β2 and the test substance, PAI-1 in the medium is determined, and to determine whether or not PAI-1 was inhibited as compared to the control.\nThe medium in which 10% bovine fetal serum was added to the DMEM medium to which three antibiotics of penicillin, streptomycin and fungizone had been added was used, and human dermal papilla cells were cultured in a 96-well plate (about 7,500 cells per well). First, dose dependency on TGF-β2 of the increased expression of PAI-1 was examined. At a suitable cell density, the medium was changed to ones containing various concentrations of TGF-β2, and was further cultured for 24 hours. Ten μl of the medium was taken out, and quantitated using a commercially available PAI-1 determination kit (TintElize PAI-1: biopool).\nThen, the present inventors investigated, as described below, whether or not TGF-β2 has the effect of inhibiting the enhanced expression of PAI-1. Phyllodulcin was dissolved in DMSO at concentrations of 0.05-50 μg/ml and used. […] At the end of culturing, the survival of cells was also determined by the Alamar Blue method."}, "[1]": {"system": "human dermal papilla cells", "assay": "Cell survival by the Alamar Blue method", "format": "cell-based", "conditions": "after 24 hours culture; 100% in the case of no addition", "description": "Then, the present inventors investigated, as described below, whether or not TGF-β2 has the effect of inhibiting the enhanced expression of PAI-1. Phyllodulcin was dissolved in DMSO at concentrations of 0.05-50 μg/ml and used. After culturing for 24 hours in a medium containing 1 ng/ml TGF-β2, 10 μl of the medium was used to determine the amount of PAI-1. At the end of culturing, the survival of cells was also determined by the Alamar Blue method.\nThis was performed as described below. Thus, after washing twice in a fresh medium, the medium was changed to one containing 1/10 amount of Alamar Blue (Alamar Bioscience), and was incubated at 37° C. (5% CO2) for four hours. After incubation, absorbance at 595 nm and 570 nm was measured by a microplate reader in order to calculate the Alamar Blue reduction rate for each well, which was divided by the Alamar Blue reduction rate for the negative control in which no phyllodulcin samples were added, and the survival of the cells were calculated."}, "isolated human hair": {"system": "isolated human hair", "assay": "Extension of isolated human hair", "format": "cell-based", "conditions": "phyllodulcin added to isolated human hair, vs control", "description": "The extension of hair when phyllodulcin was added to the isolated human hair was investigated. The result is as shown in a photograph in FIG. 20."}}, "note": "Residues, ends and D or L forms follow the SMILES beside them. *: point of attachment. Cbz = O=C(OCc1ccccc1)*; CH2F = FC*"}
{"compound": "COC(=O)CC(NC(=O)C(C)NC(=O)C(NC(=O)OCc1ccccc1)C(C)C)C(=O)CF", "note": "(stereo not drawn) [z-VAD-fmk, Carbobenzoxy-valyl-alanyl-β-methyl-aspar-1-yl-fluoromethane] (Cbz-Val-Ala-Asp(OMe)-CH2F; configuration not given here)", "values": [{"measurement": "Ratio of hair follicles in which the morphology of the hair bulb portions was retained", "setting": "human hair follicles; Experiment 2 (day 4), 10 μM, control 12.5%", "result": "37.5% (3/8)"}, {"measurement": "Ratio of hair follicles in which the morphology of the hair bulb portions was retained", "setting": "human hair follicles; Experiment 2 (day 6) as printed, 20 μM, control 20%", "result": "60% (6/10)"}, {"measurement": "extension of hair", "setting": "human hair follicles; z-VAD-fmk 1, 10, 100 μM, vs control DMSO", "result": "significantly extended hair"}, {"measurement": "activation of the precursor caspase-3", "setting": "precursor caspase-3", "result": "completely inhibit the activation of the precursor caspase-3"}]}
{"compound": "fetuin", "values": [{"measurement": "extension of hair", "setting": "human hair follicles; fetuin 1, 10, 50 μM, vs control bovine serum albumin 50 μM", "result": "significantly extended hair"}]}
{"compound": "COc1ccc([C@H]2Cc3cccc(O)c3C(=O)O2)cc1O", "note": "[phyllodulcin]", "values": [{"measurement": "hair extension", "setting": "human hair follicles; 0.6 μg/ml, eighth day of culturing, vs solvent control", "result": "significantly promoted"}, {"measurement": "amount of PAI-1", "setting": "TGF-β2; 1 ng/ml TGF-β2, 24 hours, 100 in the case of no addition, phyllodulcin 0.05-50 μg/ml", "result": 18}, {"measurement": "Alamar Blue reduction rate (%)", "setting": "[1]", "result": 95, "unit": "%"}, {"measurement": "extension of hair", "setting": "isolated human hair", "result": "the hair is extended as compared to the control"}]}
{"compound": "TGF-β2: transforming growth factor β2", "values": [{"measurement": "regression phase-like morphological changes", "setting": "human hair follicles; TGF-β2 50 ng/ml, sixth day of culturing, vs non-added control", "result": "regression phase-like morphological changes were promoted"}, {"measurement": "expression of PAI-1", "setting": "TGF-β2; various concentrations of TGF-β2, 24 hours", "result": "an increase in PAI-1 in a dose dependent manner"}]}
